Where two headings read alike, the source gives them in different places.
Columns and labels:
[1] = Pharmacokinetics of the vaginal system in 39 women over up to 13 product-use cycles; type: in vivo; design: concentration or dose not given beside the values; conditions: female, human, serum
Experimental: The pharmacokinetics (PK) of the vaginal system described herein were determined in 39 women who used the system for up to 13 product-use cycles. […] Over subsequent product-use cycles, the peak serum concentrations of SA and EE declined. Serum concentration-time profiles of SA and EE for product-pse cycles 1, 3, and 13 of system use are provided in FIG. 1 and FIG. 2 with PK parameters summarized in Table 8 and Table 9.

[2] = PK study in females with BMI<25 vs BMI>25 kg/m^2; type: in vivo, human; conditions: 18 females BMI<25 vs 21 females BMI>25 kg/m^2
Excerpt: The vaginal system described herein has not been adequately evaluated in females with a body mass index of >29 kg/m2. […] Higher body weight associates with lower systemic exposure of SA and EE. In a PK study conducted in 18 females with BMI<25 (16.89-24.34) kg/m^2 and 21 females with BMI>25 (25.15-37.46) kg/m^2, up to 16% and 33% decreases in the systemic exposure (AUC0-21day) of SA and EE, respectively, were observed between the two BMI groups.

[3] = Drug-drug interaction study with vaginal miconazole formulations; type: in vivo, human; conditions: concurrent water-based vaginal miconazole cream
Excerpt: However, the use of either the 1 day or the 3-day oil-based miconazole suppository was associated with an overall increase in exposure up to 67% for EE and 32% for SA. Considering the potential long-term effect on vaginal system performance, concurrent use of oil-based vaginal suppositories should not occur with the system's use. If there is a need to treat a vaginal condition, water-based vaginal cream or oral therapy may be used concurrently with the vaginal system.

SHBG = test: Effect on serum concentrations of SHBG; conditions: in vivo
[4] = Recoverable SA and EE after storage; type: physicochemical; conditions: for amount recoverable from the vaginal system: 24 months of storage at 25° C. and 60% relative humidity
Experimental: This was quite surprising as a similar trend was not observed during long-term stability studies on the cores before assembly.
• Diluent: methanol/water 58/42 v/v • Dried NES and EE before weighing (100-105° C. 3 h) • EE stock solution: Dissolved 25.0 mg of EE and diluted to 250.0 mL with methanol (duplicates, EE1 and EE2) • NES stock solution: Dissolved 50.0 mg of NES and diluted to 100.0 mL with methanol (duplicates, NES1 and NES2) • Standard solutions: • S1: Diluted 5.0 mL of NES1 and 4.0 mL of EE1 to 50.0 mL with diluent • S2: Diluted 6.0 mL of NES2 and 5.0 mL of EE2 to 50.0 mL with diluent • S3: Diluted 8.0 mL of NES1 and 7.0 mL of EE1 to 50.0 mL with diluent • S4: Diluted 10.0 mL of NES2 and 9.0 mL of EE2 to 50.0 mL with diluent • System suitability solution (SST solution): Diluted 5.0 mL acetone+7.0 mL NES1+6.0 mL EE1 to 50.0 mL with diluent. Extraction Procedure: • Rings were cut into 8 pieces and each piece was divided lengthwise then transferred to an Erlenmeyer flask. • 140 mL of acetone (weight of flask was noted before and after acetone addition) was added to the flask. […] Liquid Chromatography Column • analytical column: Discovery C8, 5 μm, 150×4.6 mm (Supelco) • pre-column: Supelguard, Discovery C8, 5 μm, 20×4.0 mm (Supelco) • stationary phase: endcapped C8 (5 μm particle size) USP L7 • temperature: 30° C. • Mobile phase: methanol/water 58/42, isocratic elution • Flow rate: 1.2 mL/min • Detection (assay): NES UV 240 nm, EE UV 280 nm • Detection (identity): PDA (photodiode array detector) scanning 220-310 nm, NES 240 nm, EE 280 nm • Injection: 20 μL • Run time: 15 min • System suitability: SST solution • Area precision (n=5): RSD (%)≤2.0 • Peak tailing (T): 0.8≤T≤1.5 • Blank injections: No interfering peaks • Retention times: EE approximately 7 min and NES approximately 9 min • Results Assay: Report the average value of three different rings and express as mg EE/ring and mg NES/ring. • Results Content uniformity: Calculate the average value of ten different rings. […]

[5] = in vivo; cited from earlier work
[6] = biological target: T1, sex hormone-binding globulin (SHBG) (Homo sapiens, UniProt P04278); test: Binding to sex hormone-binding globulin
T1 sequence (P04278 30-402): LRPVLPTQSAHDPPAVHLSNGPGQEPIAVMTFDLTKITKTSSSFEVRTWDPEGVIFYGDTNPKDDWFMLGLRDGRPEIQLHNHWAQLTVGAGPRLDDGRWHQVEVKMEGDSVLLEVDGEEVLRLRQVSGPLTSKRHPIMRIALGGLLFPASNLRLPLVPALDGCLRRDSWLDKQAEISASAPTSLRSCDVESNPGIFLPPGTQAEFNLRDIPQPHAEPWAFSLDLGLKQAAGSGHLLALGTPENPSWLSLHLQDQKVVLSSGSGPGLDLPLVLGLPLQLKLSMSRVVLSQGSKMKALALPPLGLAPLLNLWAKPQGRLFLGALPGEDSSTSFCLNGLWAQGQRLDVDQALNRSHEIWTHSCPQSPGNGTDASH

CYP enzymes = test: In vitro CYP inhibition/induction studies; type: in vitro ADME; conditions: therapeutic dose
[7] = Solubility in solvents (descriptive); type: physicochemical; conditions: USP classification
Salmonella = test: Ames/Salmonella reverse mutation assay; type: cell-based
[8] = test system: Chinese hamster ovary cells; test: Chromosomal aberration assay; type: cell-based
mouse = test: In vivo mouse micronucleus test
rats = test: Return to fertility study in rats with subdermal implants; type: in vivo, rat; conditions: 7 weeks after cessation of treatment
Experimental: A return to fertility study was conducted with segesterone acetate in rats, using subdermal implants releasing a dose approximately 25 times the anticipated daily vaginal human dose (based on body surface area).

C#C[C@]1(O)CC[C@H]2[C@@H]3CCc4cc(O)ccc4[C@H]3CC[C@@]21C [EE, 19-nor-17α-pregna-1,3,5(10)-trien-20-yne-3,17-diol]
AUC(0-t) ([1]; Cycle 1, mean (SD), read-out: AUC0−1 day): 2.1 ng·h/mL
AUC(0-t) ([1]; Cycle 1, mean (SD), read-out: AUC0−21day): 22.2 ng·h/mL
AUC(0-t) ([1]; Cycle 3, mean (SD), read-out: AUC0−1 day): 0.9 ng·h/mL
AUC(0-t) ([1]; Cycle 3, mean (SD), read-out: AUC0−21day): 14.7 ng·h/mL
AUC(0-t) ([1]; Cycle 13, mean (SD), read-out: AUC0−1 day): 0.7 ng·h/mL
AUC(0-t) ([1]; Cycle 13, mean (SD), read-out: AUC0−21day): 9.6 ng·h/mL
decrease in systemic exposure (AUC0-21day) between the two BMI groups [2]: ≤ 33%
change in exposure from the vaginal system [3]: no change in exposure
effect on serum concentrations of SHBG (SHBG): induces an increase in the serum concentrations of SHBG
amount recoverable from the vaginal system [4]: decreased in a time-dependent manner
amount recoverable from the core by extraction ([4]; cores before assembly, extended storage): full amount of EE was found to be recoverable
excretion route [5]: excreted in the urine and feces as glucuronide and sulfate conjugates
primary metabolic route [5]: primarily metabolized by aromatic hydroxylation

C=C1C[C@H]2[C@@H]3CCC4=CC(=O)CC[C@@H]4[C@H]3CC[C@]2(C)[C@@]1(OC(C)=O)C(C)=O [SA, 16-methylene-17α-acetoxy-19-nor-pregn-4-ene-3,20-dione]
decrease in systemic exposure (AUC0-21day) between the two BMI groups [2]: up to 16%
change in exposure from the vaginal system [3]: no change in exposure
binding affinity for sex hormone-binding globulin (SHBG) [6]: negligible binding affinity
CYP enzyme inhibition or induction (CYP enzymes): unlikely to inhibit or induce CYP enzymes
solubility ([7]; acetone): freely soluble
solubility ([7]; ethyl acetate): soluble
solubility ([7]; methanol): soluble
solubility ([7]; n-hexane): slightly soluble
mutagenicity/clastogenicity (Salmonella): neither mutagenic nor clastogenic
mutagenicity/clastogenicity [8]: neither mutagenic nor clastogenic
mutagenicity/clastogenicity (mouse): neither mutagenic nor clastogenic
effects on ovulation or litter parameters (rats): no adverse effects on ovulation or resulting litter parameters
amount recoverable from the vaginal system [4]: remained essentially constant
